Consider two compounds from patent US20250255847A1, “[…]s: Novel Drugs for Triple Negative Breast Cancer” (SIMMARON RSEARCH INC, priority 2024, published 2025).

Each structure is given as a SMILES string.

For one assay, the system named is TNBC cells. The settings on record: cited from earlier work.
Another assay has as its system tumor burden. Particulars: in vivo; cited from earlier work.
In assay [1] the target is T1, full-length STAT5b protein (Homo sapiens, UniProt P51692).
T1 construct: full-length STAT5b protein melting was assessed with (J) SIM-1, (K) SIM-2, and (L) stattic
T1 sequence (P51692 1-787): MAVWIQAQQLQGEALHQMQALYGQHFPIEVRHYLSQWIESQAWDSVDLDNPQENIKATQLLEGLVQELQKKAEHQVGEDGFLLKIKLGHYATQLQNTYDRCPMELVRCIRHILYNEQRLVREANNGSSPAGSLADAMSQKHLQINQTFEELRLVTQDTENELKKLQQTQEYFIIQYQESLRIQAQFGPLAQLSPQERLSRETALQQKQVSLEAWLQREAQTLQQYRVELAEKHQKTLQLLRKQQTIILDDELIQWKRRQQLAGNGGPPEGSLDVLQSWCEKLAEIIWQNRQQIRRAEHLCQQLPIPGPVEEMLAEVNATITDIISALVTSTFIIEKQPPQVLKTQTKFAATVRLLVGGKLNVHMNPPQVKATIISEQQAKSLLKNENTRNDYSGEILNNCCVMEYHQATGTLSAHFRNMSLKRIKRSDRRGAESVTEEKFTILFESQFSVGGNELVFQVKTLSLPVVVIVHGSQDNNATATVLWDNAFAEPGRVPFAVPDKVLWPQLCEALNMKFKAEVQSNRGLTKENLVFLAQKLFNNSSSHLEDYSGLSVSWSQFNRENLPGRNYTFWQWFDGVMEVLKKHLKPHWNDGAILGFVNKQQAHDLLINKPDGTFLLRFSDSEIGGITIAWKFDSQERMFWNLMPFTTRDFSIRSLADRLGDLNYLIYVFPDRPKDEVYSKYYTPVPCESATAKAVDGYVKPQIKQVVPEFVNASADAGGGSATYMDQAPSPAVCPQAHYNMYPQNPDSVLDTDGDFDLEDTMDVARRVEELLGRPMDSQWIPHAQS
The assay is described as follows: Protein thermal shift binding assay with STAT5b. Particulars: increasing doses. The method, then:
(§1) FIG. 5 illustrates an embodiment of the present invention and illustrates evaluations of SIM-1 and SIM-2 as STAT3 inhibitors. (A) Protein thermal shift assay was performed to assess the melting of purified recombinant STAT3 (blue; 0.5 μg protein) (Tm=melting temperature=68.88° C.). The representative melting curves were derived after adding SIM-1 (red; 4 nM), SIM-2 (purple; 8 nM), and positive control stattic (grey; 20 nM) to the STAT3 protein. The differences of melting temperature (ΔTm) between pure protein and protein+ligands are −4.54° C., −4.16° C., and 0.39° C. for SIM-1, SIM-2, and stattic (ΔTm^cut-off>2° C.). (B) Phospho protein array analysis was conducted in cell lysates of MDA-MB-468 cells treated with DMSO control (top left), 25 ng/mL EGF (top right), EGF+10 nM SIM-1 (bottom left), and EGF+SIM-2 (bottom right) for 24 hrs. Each colored arrowhead represents a specific phosphoprotein, and the description was added in the bottom of array images. S=serine and Y=tyrosine. Relative levels of (C) Tyrosine 705 (Y705) phosphorylated STAT3, (D) Serine 727 (S727) phosphorylated STAT3, (E) Tyrosine 693 (Y693) phosphorylated STAT4, (F) Tyrosine 694 ([…]) phosphorylated STAT5A had been derived after normalizing the spot densities (n=5) with respective β-actin spots. Results are mean±SD of five different spot analyses. One-way ANOVA was adopted to test the significance of mean between groups at **p<0.01, and ****p<0.0001. Ns=no significance. Thermal shift assays of increasing doses of (G) SIM-1, (H) SIM-2, and (I) stattic with purified STAT1 protein (0.5 μg protein). The respective ΔTm values were given with the plot after matching with the color code. Similarly, full-length STAT5b protein melting was assessed with (J) SIM-1, (K) SIM-2, and (L) stattic. Results are confirmed after three different experiments.
(§2) To confirm the result, PTS assay of STAT1 with SIM-1 (FIG. 5G), SIM-2 (FIG. 5H), and stattic (FIG. 5I) was performed. […] Similar results were observed while performing the binding assay with STAT5b.

Assay [2] concerns the target T2, STAT3 (Homo sapiens, UniProt P40763). The assay can be described thus: Protein thermal shift assay with recombinant STAT3. Type of assay: binding. Further details: purchased Active motif 81095. The method, then:
as §1
Target sequence in this assay (P40763 whole entry): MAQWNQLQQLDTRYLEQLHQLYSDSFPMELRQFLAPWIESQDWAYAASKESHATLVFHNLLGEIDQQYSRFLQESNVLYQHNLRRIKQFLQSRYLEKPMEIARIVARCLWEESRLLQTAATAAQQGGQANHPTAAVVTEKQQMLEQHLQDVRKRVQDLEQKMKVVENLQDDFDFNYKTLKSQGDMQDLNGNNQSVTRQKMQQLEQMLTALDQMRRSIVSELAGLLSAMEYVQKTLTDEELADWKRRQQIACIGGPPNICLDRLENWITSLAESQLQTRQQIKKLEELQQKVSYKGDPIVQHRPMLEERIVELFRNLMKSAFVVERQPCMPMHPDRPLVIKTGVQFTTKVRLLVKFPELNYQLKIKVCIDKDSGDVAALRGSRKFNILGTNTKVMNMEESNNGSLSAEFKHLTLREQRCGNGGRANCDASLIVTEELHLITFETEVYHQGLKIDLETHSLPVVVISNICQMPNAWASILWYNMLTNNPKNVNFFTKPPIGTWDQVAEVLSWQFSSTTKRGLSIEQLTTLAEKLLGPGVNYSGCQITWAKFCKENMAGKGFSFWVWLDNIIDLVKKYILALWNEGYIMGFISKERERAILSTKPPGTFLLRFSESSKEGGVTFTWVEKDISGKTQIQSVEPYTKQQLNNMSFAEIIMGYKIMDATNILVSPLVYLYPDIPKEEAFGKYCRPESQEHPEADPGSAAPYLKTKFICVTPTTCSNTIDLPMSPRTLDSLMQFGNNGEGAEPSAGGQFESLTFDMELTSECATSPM
FIG. 6 illustrates an embodiment of the present invention and illustrates dose-dependent curves of maximum fluorescence for SIM1 and SIM2. Protein thermal shift assay of recombinant STAT3 was performed with increasing doses of (A) SIM-1, (B) SIM-2, and (C) positive control “Stattic”. The maximum fluorescence for each dose was derived and then plotted in GraphPad Prism software with respective doses. The resultant non-liner hyperbolic curves provide half-maximal binding (EC50) for all three compounds.
This example provides a representative study of the present disclosure to test if SIM1 and SIM2 served as ligands of STAT3. Therefore, the present invention adopted a protein thermal shift assay in which […] of recombinant human STAT3 protein (active motif) was incubated with increasing doses of SIM1 and SIM2 followed by the execution of melting analysis starting from 25 to 95° C. as described elsewhere.

The target in assay [3] is T2, STAT3. The settings on record: read-out: IC50 as STAT3 inhibitor; cited from earlier work.
Target sequence in this assay (P40763 whole entry, species assumed): as the sequence (P40763 whole entry) above
For another assay, the target named is T3, purified STAT1 protein (Homo sapiens, UniProt P42224).
T3 sequence (P42224 1-750): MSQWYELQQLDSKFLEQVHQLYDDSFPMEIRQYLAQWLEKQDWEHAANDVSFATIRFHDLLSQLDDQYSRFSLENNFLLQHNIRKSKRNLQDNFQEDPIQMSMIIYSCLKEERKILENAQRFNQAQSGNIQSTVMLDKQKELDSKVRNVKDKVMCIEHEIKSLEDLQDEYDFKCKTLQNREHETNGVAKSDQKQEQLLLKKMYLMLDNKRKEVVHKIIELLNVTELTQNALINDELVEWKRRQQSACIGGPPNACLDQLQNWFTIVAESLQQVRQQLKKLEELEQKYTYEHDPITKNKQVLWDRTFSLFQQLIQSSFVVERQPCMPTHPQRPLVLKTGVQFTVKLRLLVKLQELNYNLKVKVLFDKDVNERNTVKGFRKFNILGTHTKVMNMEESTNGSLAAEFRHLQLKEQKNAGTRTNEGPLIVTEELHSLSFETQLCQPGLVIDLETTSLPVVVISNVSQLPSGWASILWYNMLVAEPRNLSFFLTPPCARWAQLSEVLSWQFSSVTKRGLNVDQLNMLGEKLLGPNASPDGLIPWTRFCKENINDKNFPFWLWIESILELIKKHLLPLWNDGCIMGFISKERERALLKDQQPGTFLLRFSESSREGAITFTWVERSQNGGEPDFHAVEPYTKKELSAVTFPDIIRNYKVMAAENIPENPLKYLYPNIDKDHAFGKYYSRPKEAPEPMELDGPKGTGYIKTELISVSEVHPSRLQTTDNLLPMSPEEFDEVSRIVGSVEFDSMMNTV
The assay is described as follows: Protein thermal shift (PTS) assay of STAT1. Type of assay: binding. Particulars: 10 and 20 μM. The method, then:
as §1, §2

For the compound `NC(=O)CC[C@H](NC(=O)[C@@H]1CC[C@@H]2CCN(C(=O)CCCCCC#Cc3cccc4c3CN(C3CCC(=O)NC3=O)C4=O)C[C@H](NC(=O)c3cc4cc(C(F)(F)P(=O)(O)O)ccc4[nH]3)C(=O)N21)C(=O)NC(c1ccccc1)c1ccccc1` (stereo partly drawn) [SD36], the CT50 result in the assay on TNBC cells is given as “micromolar range”. Also, in the assay on tumor burden, the “dose effectively reducing tumor burden” value is on record as 25-50 mg/Kg body weight (bwt).

For `O=[N+]([O-])c1ccc2c(c1)S(=O)(=O)C=C2` [stattic, reference compound], the “shift in the melting curve of STAT5b” value in assay [1] was “unable to produce any significant shift”. On STAT3 [2] (20 nM ligand, cut-off 2° C.), the “ΔTm of STAT3” value stood at 0.39 °C. Also, on STAT3 [2] (non-linear hyperbolic binding curve, read-out: EC50 (half-maximal binding, maximum fluorescence versus dose)), the concentration for a half-maximal effect (EC50) was about 2 µM. Further, the IC50 on STAT3 [3] was 5 µM. For the same compound, in the assay on TNBC cells, the CT50 result is recorded as “micromolar range” and the “doses causing apoptosis of TNBC tumors” value was 10 to 20 µM. Besides, the “shift in the melting curve of STAT1” value at purified STAT1 protein was “did not produce any shift”.
